Data on 4 compounds can be found in patent US10464920B2, “Vicinal primary diamines associated with metal and/or free radical chelation motifs, and active against carbonyl and oxidative stress, and use thereof” (UNIVERSITE AMIENS PICARDIE JULES VERNE, priority 2015, dated 2019).

The test system of assay [1] is rat pheochromocytoma cells, treated as neuronal cells (PC12). As to the kind of experiment: Anti-apoptotic properties after MGO-induced apoptosis (ELISA) on PC12. The note with it: 24 h. It counts as cell-based. As to the method:
(§1) The apoptosis of cells is evaluated by an ELISA method using two murine monoconal antibodies with one directed against the DNA and the other against the histones ([…] Cell Death Detection kit, Roche, Meylan, France). This technique makes it possible to specifically measure the mono- and oligo-nucleosomes in the cytoplasmic fraction of the cell lysates.
(§2) Briefly, the cells are inoculated in 96-well or 24-well plates at a rate of 5.10^3 cells/well for the Bend.3 and PC12 and 75.10^3 cells/well for the MRCS in the suitable medium until subconfluence. The cells are then washed with PBS, then treated with various concentrations (10 μM, 100 μM) of the products to be tested in triplicates for 30 min to 1 h (cellules PC12 and Bend.3) or 1 h (cellules MRCS) at 37° C. The solution of MGO (1 mM for the cellules PC12, 2 mM for the cellules Bend.3 and MRCS) is then added for an incubation of 24 h. The concentrations of MGO for each cell type were chosen according to literature and a cytotoxicity test (CCK8) that we conducted. The solution of lyse is then added to each well for 30 min at room temperature. The cell lysates are then centrifuged at 200 g for 10 min. Twenty microliters of this cell lysate is then used for the ELISA according to the procedure described by the supplier. The cell lysates are as such applied to a plate covered with anti-Histones antibodies making it possible to view the fragmentation of the DNA. A peroxidase combined with anti-DNA antibodies then reacts in the presence of the substrate thereof, ABTS (diammonium 2,2′-azino-bis(3-ethylbenzothiazoline-6-sulphonate) and H2O2 in order to give a green derivative of which the optical density reflects the level of apoptosis. The measurement of the absorbance is taken at 405 nm using a Perkin Elmer 2103 Envision® microplate reader. A positive control is carried out in the presence of MGO alone.
The apoptosis of the cells is expressed by the mean±standard deviation of triplicates forming a representative experiment or of three independent experiments conducted in triplicate.

The test system of assay [2] is murine endothelial brain cells (bEnd.3). As to the kind of experiment: Anti-apoptotic properties after MGO-induced apoptosis (ELISA) on bEnd.3. The following applies: bEnd.3, pretreated 30 min with 10 or 100 μM, then 2 mM MGO, 24 h. The format is cell-based. As to the method:
as §1
as §2, with “The concentrations of MGO for each cell type were chosen according to literature and a cytotoxicity test (CCK8) that we conducted. The solution of lyse is then added to each well for 30 min at room temperature. The cell lysates are then centrifuged at 200 g for 10 min. Twenty microliters of this cell lysate is then used for the ELISA according to the procedure described by the supplier. The cell lysates are as such applied to a plate covered with anti-Histones antibodies making it possible to view the fragmentation of the DNA.” left out, “alone. […]” for “alone.”

For assay [3], the system named is human fibroblasts (MRC-5). As to the kind of experiment: Anti-apoptotic properties after MGO-induced apoptosis (ELISA) on MRC-5. The note with it: MRC-5, pretreated 1 h with 10 or 100 μM, then 2 mM MGO, 24 h. The format is cell-based. As to the method:
as §1
as §2, with “The concentrations of MGO for each cell type were chosen according to literature and a cytotoxicity test (CCK8) that we conducted. The solution of lyse is then added to each well for 30 min at room temperature. The cell lysates are then centrifuged at 200 g for 10 min. Twenty microliters of this cell lysate is then used for the ELISA according to the procedure described by the supplier. The cell lysates are as such applied to a plate covered with anti-Histones antibodies making it possible to view the fragmentation of the DNA.” left out, “alone. […]” for “alone.”
On the technique in general: An ELISA detects its analyte on a solid surface through an enzyme-linked reagent.

The nature of assay [4]: Formation of adducts with MDA, kinetic study by HPLC. The note with it: compound 10 mM, MDA 20 mM, 37° C., after 24 h of reaction; no HPLC separation, trend. The format is physicochemical. On the procedure: The compounds to be tested are incubated at 37° C. in the presence of MGO or of MDA. A kinetic study aiming to report on the formation of adducts with the MGO or MDA is then carried out via HPLC analysis.
The compounds to be tested (30 μmol) are dissolved in PBS (1.5 mL). An aqueous solution (qsp 1.25 mL) of MGO at 40% in water (250 μmol) is then prepared and in parallel, MDA bis-(diOEt)-acetal (250 μmol) is set to react with a solution of HCl 1N (2 eq) in water (qsp 1.25 mL) for 1 h at room temperature. An aqueous solution of NaOH 0.05N is also required to neutralise the reaction medium (5 mL).
The solution of the compound to be tested (625 μL—final concentration in the medium=10 mM) is then set to react with the solution of MGO or of MDA prepared extemporaneously (125 μL—final concentration in the medium=20 mM) in the presence of NaOH 0.05 N (0.5 mL). […]
A sampling of each mixture (100 μL) is taken at regular intervals of time (0.25; 0.5; 1; 5 and 24 h) and stored at −20° C. in order to stop the reaction. […] The proportion of adducts formed with the MGO or MDA (generally, tR=4.1 to 6.8 min) is then measured in relation to the quantity of remaining free scavenger (generally, tR=0.8 to 4.6 min) after measurement of the area under the curve of the corresponding peaks on the UV spectrum (measurements taken for a representative sample).

[5] abbreviates: PC12, pretreated 30 min with 10 or 100 μM, then 1 mM MGO.

Consider `NCC(N)CCCCNC(=O)c1cc(O)c(O)c(O)c1` (centres unmarked) [Compound 30b, N-(5,6-diaminohexyl)-3,4,5-trihydroxybenzamide], for which the anti-apoptotic properties result is recorded as “this trend is confirmed at 100 μM” in assay [1] (setting [5]) and “very interesting anti-apoptotic properties starting at 10 μM” in assay [2].
As to `NCC(N)CCCCNC(=O)CCn1cccc(O)c1=O` (centres unmarked) [Compound 37b, N-(5,6-diaminohexyl)-3-(3-hydroxy-2-oxopyridin-1(2H)-yl)propanamide], the anti-apoptotic properties entry in assay [3] is “promising anti-apoptotic properties at 100 μM”.
On to `NCC(N)CCC(=O)NCCCn1cccc(O)c1=O` (centres unmarked) [Compound 37c, 4,5-diamino-N-(3-(3-hydroxy-2-oxopyridin-1(2H)-yl)propyl)pentanamide], for which the anti-apoptotic properties entry is reported as “very interesting anti-apoptotic properties starting at 10 μM” in assay [1] (setting [5]); “confirmed” in assay [1] (PC12, pretreated 1 h, 100 μM, 1 mM MGO, three independent experiments in triplicate); “promising anti-apoptotic properties at 100 μM” in assay [3]; “very interesting anti-apoptotic properties starting at 10 μM” in assay [2].
As for `COc1cc(/C=C/C(=O)N2CCN(C(=O)CCC(N)CN)CC2)ccc1O` (centres unmarked) [Compound 29a, (E)-4,5-diamino-1-(4-(3-(4-hydroxy-3-methoxyphenyl)acryloyl)piperazin-1-yl)pentan-1-one], in assay [4], the “adducts with the MDA with regards to the free scavenger” value was “majority presence of AdD”.
